In article PMC11927960, “Multiparameter ranking of carbazoles for anti-trypanosome lead discovery” (Frontiers in drug discovery, 2024):
Values after ≈ are worked out from the molar mass of the structure shown.

Columns and labels:
[1] = Caco-2 bidirectional permeability assay; assay type: in vitro ADME; settings: human
Method: Caco-2 bidirectional permeability assay.
Caco-2 bidirectional permeability assay was performed at Absorption Systems (Exton, Pennsylvania). Briefly, monolayers of Caco-2 cells (clone C2BBe1) were grown to confluence on collagen-coated, microporous membranes in 12-well plates. Permeability assay buffer (Hanks’ balanced salt solution containing 10 mM HEPES and 15 mM glucose, pH 7.4) in the receiver chamber contained 1% bovine serum albumin. Compounds dissolved in assay buffer (5 μM) were added either on the apical (A) or the basolateral side (B) and incubated at 37 °C with 5% CO2 in a humidified incubator. Samples were collected from donor and receiver chambers at 120 min. Each determination was performed in duplicate. The flux of lucifer yellow dye was measured post-experimentally for each monolayer to ensure that no monolayers were damaged during the flux period with compounds. Drug amounts were determined by LC-MS/MS. Apparent permeability (Papp) and percent recovery were determined as per [Hubatsch et al. (2007)]. The efflux ratio was calculated as Papp (B-to-A)/Papp (A-to-B).

[2] = system: DNA synthesis in Trypanosoma brucei; assay: DNA synthesis (EdU incorporation); assay type: cell-based; settings: for Effect on EdU incorporation into nuclei (DNA synthesis): DTC25 (CBL0174 48 nM, CBL0187 54 nM), vs DMSO, p < 0.0001; for DNA Synthesis affected: DTC25, Table S3
Method: Incorporated EdU was tracked by clicking with azide-Alexa Fluor-488 and observed with a fluorescence microscope. For quantitation, at least 100 cells were analyzed from each sample. (A) Representative images of the EdU-positive signal (green) with DAPI (blue) in 0.1% DMSO (top), CBL0174-treated (middle), or CBL0187-treated cells (bottom). (B) Representative images for quantitation of nuclear EdU brightness (nEdU). CellProfiler 3.1.9 was used to extract the EdU fluorescence signal over the DAPI area. Lines represent the median with error bars denoting standard deviation (SD) from three biological replicates. The statistical significance of the distribution of EdU brightness in different treatment groups was analyzed with a Mann–Whitney test.
Bloodstream trypanosomes (5 × 10^5 cells/mL) pretreated with DTC25 concentrations of CBL0174 or CBL0187 in HMI-9 medium (for 15 min) were incubated with 5-ethynyl-2′-deoxyuridine (EdU) (Abcam) (300 μM) for 1 h. Cells were prepared as per [Sullenberger et al. (2017)]. Images of trypanosomes were captured using a DeltaVision II Olympus inverted microscope processed with Fiji (ImageJ, v 2.0.0) and analyzed using CellProfiler 3.1.9 ([Sanz-Rodriguez et al., 2022]).

[3] = Thermodynamic aqueous solubility (pH 7.4); assay type: physicochemical; settings: aqueous buffer, thermodynamic from solid, phosphate buffer pH 7.4, 25 °C, 20–24 h
Method: Thermodynamic aqueous solubility (pH 7.4).
Various amounts of compounds in powdered form were added to phosphate buffer (0.1 M, pH 7.4). Suspensions were kept on a shaker at 25 °C for 20–24 h. After centrifugation, compounds in the supernatant were quantified using LC-MS/MS.

[4] = Plasma pharmacokinetics after single oral dose; assay type: in vivo, Swiss Webster mice; settings: Swiss Webster, mouse; for AUC(0-t): female mice values of Table 3, quoted in μM, read-out: AUC0–6h
Method: The plasma concentration and tissue distribution of drugs were determined by Absorption Systems. […] Blood and brain samples were obtained at 1, 2, 4, and 6 h post-dosing, and plasma and brain concentrations of the drug were determined using LC-MS/MS. Stock standards for calibration were prepared in a matrix comprising equal volumes of water and mouse blood containing K2-EDTA as an anticoagulant. Working solutions were prepared in 50:50 acetonitrile–water and added to the matrix to final concentrations of 1,000, 500, 100, 50.0, 10.0, 5.00, 1.00, and 0.500 ng/mL for all compounds. Pharmacokinetic parameters were determined using Phoenix WinNonlin (v8.0) software with sparse sampling. Maximum plasma concentration (Cmax) and the time to reach maximum plasma concentration (tmax) were determined from the four data points. The area under the time concentration curve (AUClast) was calculated using the linear trapezoidal rule with calculation to a 6-h data point. Plasma half-life (t1/2) was calculated from 0.693/slope of the terminal elimination phase. Samples below the limit of detection (0.500 ng/mL) were treated as 0.

[5] = system: endocytosis of bovine serum albumin (BSA) in Trypanosoma brucei; assay type: cell-based; settings: DTC25; Table S3
Method: Cells were washed and resuspended in serum-free medium. Trypanosomes were incubated with fluorescent endocytosis ligands transferrin (Tf) or bovine serum albumin (BSA) for 30 min (37 °C). A flow cytometer was used to detect fluorescence intensity per cell. Propidium iodide (PI) was used to stain and gate out non-viable cells. Histograms present fluorescence intensity of Tf-AF488 (A) or BSA-AF647 (B) for every cell (n > 10,000 for each cargo) in DMSO or drug-treated samples. Points on the scatter plot represent mean fluorescence intensities of Tf (C) or BSA (D) from three biological replicates (calculated with FlowJo). Bars indicate mean ± SD. […]
Curaxin or DMSO-treated trypanosomes (5 × 10^5/mL) were washed with serum-free HMI-9 medium (500 uL). […] Cells were transferred to an ice-water bath, washed with cold PBS/G at 4 °C (3,000 g for 5 min), resuspended in PBS/G (500 μL) containing propidium iodide (3 μM), and analyzed on a flow cytometer (Beckman Coulter CytoFLEX S). FlowJo software (FlowJo, LLC) was used to gate trypanosomes based on size and shape (forward and side scatter features), and fluorescence intensity of endocytosed protein was measured in viable cells (negative for propidium iodide uptake). FlowJo software was used to determine the mean fluorescence intensity of each cargo in trypanosomes (at least 10,000 events). […]

[6] = system: endocytosis of transferrin (Tf) in Trypanosoma brucei; assay: Endocytosis of transferrin (flow cytometry); assay type: cell-based; settings: for Effect on endocytosis of Tf / Endocytosis Transferrin: DTC25; for Increase of Tf endocytosis compared to DMSO: DTC25, 6 h, not statistically significant; for Endocytosis Transferrin: Table S3
Method: Cells were washed and resuspended in serum-free medium. Trypanosomes were incubated with fluorescent endocytosis ligands transferrin (Tf) or bovine serum albumin (BSA) for 30 min (37 °C). A flow cytometer was used to detect fluorescence intensity per cell. Propidium iodide (PI) was used to stain and gate out non-viable cells. Histograms present fluorescence intensity of Tf-AF488 (A) or BSA-AF647 (B) for every cell (n > 10,000 for each cargo) in DMSO or drug-treated samples. Points on the scatter plot represent mean fluorescence intensities of Tf (C) or BSA (D) from three biological replicates (calculated with FlowJo). Bars indicate mean ± SD. Student’s t-test was used to evaluate statistical significance of differences in mean intensity of endocytosed ligand in DMSO-treated sample compared to curaxin-treated samples.
Curaxin or DMSO-treated trypanosomes (5 × 10^5/mL) were washed with serum-free HMI-9 medium (500 uL). Trypanosomes were resuspended in serum-free HMI-9 medium (100 μL) supplemented with either transferrin–[…] conjugate (50 μg, Invitrogen, Eugene, OR) or BSA–AlexaFluor647 conjugate (50 μg, Invitrogen, Eugene, OR) for 30 min at 37 °C, 5% CO2. Cells were transferred to an ice-water bath, washed with cold PBS/G at 4 °C (3,000 g for 5 min), resuspended in PBS/G (500 μL) containing propidium iodide (3 μM), and analyzed on a flow cytometer (Beckman Coulter CytoFLEX S). FlowJo software (FlowJo, LLC) was used to gate trypanosomes based on size and shape (forward and side scatter features), and fluorescence intensity of endocytosed protein was measured in viable cells (negative for propidium iodide uptake). FlowJo software was used to determine the mean fluorescence intensity of each cargo in trypanosomes (at least 10,000 events). Data from three independent biological experiments were analyzed with a two-tailed Student’s t-test with unequal variance to determine the possible statistical significance of differences in means of fluorescence intensities of endocytosed cargo.

[7] = Caco-2, pH 7.4, Caco-2, direction A-to-B
[8] = Caco-2, pH 7.4, Caco-2, direction B-to-A

Compound | Papp at 120 min, 5 μM [1, 7] [×10⁻⁶ cm/s] | recovery at 120 min, 5 μM [1, 7] [%] | Papp at 120 min, 5 μM [1, 8] [×10⁻⁶ cm/s] | recovery at 120 min, 5 μM [1, 8] [%] | Effect on EdU incorporation into nuclei (DNA synthesis) [2] | DNA Synthesis affected [2] | solubility [3] [µM] | AUC(0-t) [4] [µM·h] | Tmax ([4]; female) [h] | half-life ([4]; female) [min] | Tmax ([4]; male) [h] | half-life ([4]; male) [min] | Endocytosis BSA affected [5] | Fold increase of Tf endocytosis compared to DMSO [6] | Effect on endocytosis of Tf [6] | Increase of Tf endocytosis compared to DMSO [6] [%] | Endocytosis Transferrin [6]
CC(=O)c1cc2c3cc(C(C)=O)c(O)cc3n(CCCN(C)C)c2cc1O [CBL0174, 1-[6-acetyl-9-[3-(dimethylamino)propyl]-2,7-dihydroxy-carbazol-3-yl]ethanone] | 17.8 ± 0.35 | 60 | 21.9 ± 3.39 | 86 | inhibited EdU incorporation into nuclei | Yes | 773 (≈ 285 µg/mL) | 3.14 ± 0.25 | 1 | 217 | 1 | 260 | No | 1.39 | did not promote endocytosis of Tf | 39 | Activated
CC(=O)c1cc2c3cc(C(C)=O)c(O)cc3n(CCNC(C)C)c2cc1O [CBL0187, 1-[6-acetyl-2,7-dihydroxy-9-[2-(isopropylamino)ethyl]carbazol-3-yl]ethanone] | 14 ± 1.91 | 47 | 21.7 ± 3.39 | 64 | inhibited EdU incorporation into nuclei | Yes | 36.3 (≈ 13.4 µg/mL) | 2.95 ± 0.18 | 1.5 ± 0.7 | > 360 | 2 | > 360 | No | 1.31 | had no effect on the pathway | 30.9 | Activated
